Assay results reported in publication PMC5971061, “Differential Effects of Linkers on the Activity of Amphiphilic Tobramycin Antifungals” (Molecules : A Journal of Synthetic Chemistry and Natural …, 2018).
In brackets after ≈: the same amount, converted by molar mass.

Legend:
Hemolytic activity assay = format: cell-based, murine; details: mouse, murine red blood cells (mRBCs), mRBCs, 37 °C 1 h, ± SDEV
Method: (§1) The hemolytic activity of compounds 3, 4, 7a, 7b, and 9 as well as the parent compound TOB was determined by using previously described methods with minor modifications. Murine whole blood (1 mL) was suspended in 4 mL of PBS and centrifuged at 1000 rpm for 10 min at room temperature to obtain murine red blood cells (mRBCs). The mRBCs were washed four times in PBS and resuspended in the same buffer to a final concentration of 10^7 erythrocytes/mL. Two-fold serial dilutions of compounds 3, 4, 7a, 7b, and 9 were prepared using 100 μL of PBS buffer in Eppendorf tubes followed by the addition of 100 μL of mRBC suspension that made the final concentration of compounds and mRBCs to be 0.48–62.5 μg/mL and 5 × 10^6 erythrocytes/mL, respectively. The tubes were incubated at 37 °C for 1 h. The tubes with PBS buffer (200 μL) and Triton X-100® (1% v/v, 2 μL) served as the negative (blank) and positive controls, respectively. The percentage of hemolysis was calculated using the following equation: % hemolysis = [(absorbance of sample) − (absorbance of blank)] × 100/(absorbance of positive control).

[1] = test system: murine red blood cells (mRBCs); assay: Hemolytic activity assay; format: cell-based; details: 62.5 μg/mL, mRBCs, 37 °C 1 h, ± SDEV
Method: as §1

[2] = test system: C. albicans ATCC 64124 (strain B); assay: MIC, broth microdilution (CLSI M27-A3), yeast strain B; format: cell-based; details: Candida albicans, ATCC64124; MIC-0, strain B, 35 °C 48 h
Method: (§2) The final concentrations of compounds 3, 4, 7a, 7b, 9, and 16, as well as that of TOB tested in this study ranged from 0.24–62.5 μg/mL. CAS was used as a positive control and the final concentrations tested for CAS ranged from 0.03–31.3 μg/mL. Briefly, overnight yeast cultures were grown in yeast peptone dextrose (YPD) broth and the cell density was adjusted to an OD600 of 0.12 (~1 × 10^6 CFU/mL) by using a spectrophotometer. Yeast cell suspensions were further diluted to achieve 1–5 × 10^3 CFU/mL in RPMI 1640 medium, and 100 μL of these yeast cells was added to 96-well microtiter plates containing RPMI 1640 medium and titrated compounds. Each test was performed in triplicate. The plates were incubated at 35 °C for 48 h.

[3] = test system: C. albicans ATCC MYA-1003(R) (strain G); assay: MIC, broth microdilution (CLSI M27-A3), yeast strain G; format: cell-based; details: Candida albicans; MIC-0, strain G, 35 °C 48 h
Method: as §2

[4] = test system: Aspergillus terreus ATCC MYA-3633 (strain M); assay: MIC, filamentous fungi (CLSI M38-A2), strain M; format: cell-based; details: MIC-0, strain M, 35 °C 72 h
Method: (§3) The spores were harvested from sporulating cultures growing on potato dextrose agar (PDA) by filtration through sterile glass wool and enumerated by using a hemocytometer (Hausser Scientific, Horsham, PA, USA) to obtain the desired inoculum size. Two-fold serial dilutions of compounds 3, 4, 7a, 7b, 9, and 16, as well as CAS and TOB were made in sterile 96-well microtiter plates to obtain the final concentration range of 0.24–62.5 μg/mL for TOB and TOB derivatives as well as 0.03–31.3 μg/mL for CAS in the RPMI 1640 medium. The spore suspensions were added to the wells to afford a final concentration of 5 × 10^5 spores/mL. The plates were incubated at 35 °C for 72 h. […] Each test was performed in triplicate.

[5] = test system: C. albicans ATCC MYA-2876(S) (strain C); assay: MIC, broth microdilution (CLSI M27-A3), yeast strain C; format: cell-based; details: Candida albicans; MIC-0, strain C, 35 °C 48 h
Method: as §2

[6] = test system: Candida parapsilosis ATCC 22019 (strain J); assay: MIC, broth microdilution (CLSI M27-A3), yeast strain J; format: cell-based; details: Lodderomyces parapsilosis, ATCC22019; MIC-0, strain J, 35 °C 48 h
Method: as §2

[7] = test system: C. albicans ATCC 90819(R) (strain D); assay: MIC, broth microdilution (CLSI M27-A3), yeast strain D; format: cell-based; details: Candida albicans, ATCC90819; MIC-0, strain D, 35 °C 48 h
Method: as §2

[8] = test system: Candida parapsilosis clinical isolate CP1; assay: MIC, broth microdilution (CLSI M27-A3), CP1; format: cell-based; details: Lodderomyces parapsilosis; MIC-0, CP1, 35 °C 48 h
Method: as §2

[9] = test system: Candida parapsilosis clinical isolate CP3; assay: MIC, broth microdilution (CLSI M27-A3), CP3; format: cell-based; details: MIC-0, CP3, 35 °C 48 h
Method: as §2

[10] = test system: Candida parapsilosis clinical isolate CP2; assay: MIC, broth microdilution (CLSI M27-A3), CP2; format: cell-based; details: Lodderomyces parapsilosis; MIC-0, CP2, 35 °C 48 h
Method: as §2

[11] = test system: C. albicans ATCC 10231 (strain A); assay: MIC, broth microdilution (CLSI M27-A3), yeast strain A; format: cell-based, Candida albicans
Method: as §2

[12] = test system: seven C. albicans strains (A-G); assay: MIC across the panel of seven C. albicans strains; format: cell-based; details: Candida albicans; across all seven C. albicans strains tested
Method: as §2

[13] = test system: Candida glabrata ATCC 2001 (strain H); assay: MIC, broth microdilution (CLSI M27-A3), yeast strain H; format: cell-based; details: Nakaseomyces glabratus, ATCC2001; MIC-0, strain H, 35 °C 48 h
Method: as §2

[14] = test system: Aspergillus flavus ATCC MYA-3631 (strain K); assay: MIC, filamentous fungi (CLSI M38-A2), strain K; format: cell-based; details: Aspergillus flavus, 72 h, MIC-0, strain K, 35 °C 72 h; read-out: MIC
Method: as §3

[15] = test system: nine non-albicans Candida strains (H-J, CG1-3, CP1-3); assay: MIC across the panel of nine non-albicans Candida strains; format: cell-based, Candida glabrata, Candida krusei, Candida parapsilosis
Method: as §2

[16] = test system: Cryptococcus neoformans clinical isolate CN2; assay: MIC, broth microdilution (CLSI M27-A3), CN2; format: cell-based; details: MIC-0, CN2, 35 °C 48 h
Method: as §2

[17] = test system: Cryptococcus neoformans clinical isolate CN1; assay: MIC, broth microdilution (CLSI M27-A3), CN1; format: cell-based; details: MIC-0, CN1, 35 °C 48 h
Method: as §2

[18] = test system: Candida glabrata clinical isolate CG3; assay: MIC, broth microdilution (CLSI M27-A3), CG3; format: cell-based; details: Nakaseomyces glabratus; MIC-0, CG3, 35 °C 48 h
Method: as §2

[19] = test system: C. albicans ATCC MYA-2310(S) (strain E); assay: MIC, broth microdilution (CLSI M27-A3), yeast strain E; format: cell-based; details: Candida albicans; MIC-0, strain E, 35 °C 48 h
Method: as §2

[20] = test system: C. albicans ATCC MYA-1237(R) (strain F); assay: MIC, broth microdilution (CLSI M27-A3), yeast strain F; format: cell-based; details: Candida albicans; MIC-0, strain F, 35 °C 48 h
Method: as §2

[21] = test system: Candida glabrata clinical isolate CG2; assay: MIC, broth microdilution (CLSI M27-A3), CG2; format: cell-based; details: Nakaseomyces glabratus; MIC-0, CG2, 35 °C 48 h
Method: as §2

[22] = test system: Aspergillus nidulans ATCC 38163 (strain L); assay: MIC, filamentous fungi (CLSI M38-A2), strain L; format: cell-based; details: Aspergillus nidulans, ATCC38163, 72 h, MIC-0, strain L, 35 °C 72 h; read-out: MIC
Method: as §3

[23] = test system: Cryptococcus neoformans clinical isolate CN3; assay: MIC, broth microdilution (CLSI M27-A3), CN3; format: cell-based; details: MIC-0, CN3, 35 °C 48 h
Method: as §2

[24] = test system: Candida glabrata clinical isolate CG1; assay: MIC, broth microdilution (CLSI M27-A3), CG1; format: cell-based; details: Nakaseomyces glabratus; MIC-0, CG1, 35 °C 48 h
Method: as §2

[25] = test system: Candida krusei ATCC 6258 (strain I); assay: MIC, broth microdilution (CLSI M27-A3), yeast strain I; format: cell-based; details: Pichia kudriavzevii, ATCC6258; MIC-0, strain I, 35 °C 48 h
Method: as §2

[26] = test system: C. neoformans (strain CN1); assay: Time-kill assay, CN1; format: cell-based, Cryptococcus neoformans; details: controls TOB 15.6 μg/mL and VOR 1× MIC, 24-h period
Method: (§4) Time-kill assays were used to assess the inhibitory efficiency of 7b against three yeast strains, C. albicans ATCC 10231 (strain A), C. parapsilosis ATCC 22019 (strain J), and C. neoformans clinical isolate CN1. The protocol for time-kill assays followed methods previously described with minor modifications. Yeast cultures were grown overnight in YPD broth at 35 °C with shaking (200 rpm). A working stock of fungal cells was made by diluting cultures in RPMI 1640 medium to an OD600 of 0.125, approximately 1 × 10^6 CFU/mL. From the working stock, 100 μL of cells was added to 4.9 mL of RPMI 1640 medium in sterile culture tubes, making the starting fungal cell concentration […]. Compounds were then added to the fungal cells. The treatment conditions included sterile control, growth control, TOB (parent; negative control), voriconazole (VOR) at 1× MIC (positive control), 7b at 1× and 4× MIC. The treated fungal cultures were incubated at 35 °C with shaking (200 rpm) for 24 h. The samples were taken from the different treatments at regular time points (0, 3, 6, 9, 12, and 24 h.) and plated in duplicates. For each time point, cultures were vortexed, 100 μL of culture was aspirated, and 10-fold serial dilutions were made in sterile ddH2O. From the appropriate dilutions, 100 μL of fungal suspension was spread on PDA plates and incubated at 35 °C for 48 h before the colony counts were determined. At 24 h, 50 μL of 1 mM resazurin was added to the treatments and incubated at 35 °C with rotation for 2 h in the dark for visual inspection. Experiments were performed in duplicate.

[27] = test system: C. albicans ATCC 10231 (strain A); assay: Time-kill assay, strain A; format: cell-based, Candida albicans
Method: as §4

## C[C@@H]1[C@H](O)[C@@H](C)/C=C/C=C/C=C/C=C/C=C/C=C/C=C/[C@H](O[C@@H]2O[C@H](C)[C@@H](O)[C@H](N)[C@@H]2O)C[C@@H]2O[C@](O)(C[C@@H](O)C[C@@H](O)[C@H](O)CC[C@@H](O)C[C@@H](O)CC(=O)O[C@H]1C)C[C@H](O)[C@H]2C(=O)O [AmB, amphotericin B, reference compound]
Hemolytic activity assay; 0.48 μg/mL
  hemolysis at 1 h, 0.48 μg/mL: 0%
Hemolytic activity assay; 0.975 μg/mL
  hemolysis at 1 h, 0.975 μg/mL: 0%
Hemolytic activity assay; 1.95 μg/mL
  hemolysis at 1 h, 1.95 μg/mL: 1.7 ± 0.1%
Hemolytic activity assay; 3.9 μg/mL
  hemolysis at 1 h, 3.9 μg/mL: 3.4 ± 0.6%
Hemolytic activity assay; 7.8 μg/mL
  hemolysis at 1 h, 7.8 μg/mL: 3.7 ± 0.7%
Hemolytic activity assay; 15.6 μg/mL
  hemolysis at 1 h, 15.6 μg/mL: 31.9 ± 5.7%
Hemolytic activity assay; 31.3 μg/mL
  hemolysis at 1 h, 31.3 μg/mL: 80.2 ± 8.5%
[1]
  % hemolysis: 90.3 ± 5.7%

## CCCCCCCCCCCCOCC1OC(OC2C(N)CC(N)C(OC3OC(CN)C(O)CC3N)C2O)C(O)C(N)C1O [Compound 16, O-3-Amino-3-deoxy-6-O-dodecyl-α-D-glucopyranosyl-(1→6)-O-[2,6-diamino-2,3,6-trideoxy-α-D-ribo-hexopyranosyl-(1→4)]-2-deoxy-D-streptamine]
[2]
  MIC: 62.5 µg/mL (≈ 98.3 µM)
[3]
  MIC: 62.5 µg/mL (≈ 98.3 µM)
[4]
  MIC: > 62.5 µg/mL
[5]
  MIC: > 62.5 µg/mL
[6]
  MIC: 31.3 µg/mL (≈ 49.2 µM)
[7]
  MIC: 62.5 µg/mL (≈ 98.3 µM)
[8]
  MIC: 62.5 µg/mL (≈ 98.3 µM)
[9]
  MIC: 62.5 µg/mL (≈ 98.3 µM)
[10]
  MIC: 62.5 µg/mL (≈ 98.3 µM)
[11]; Candida albicans, ATCC10231, MIC-0, strain A, 35 °C 48 h
  MIC: 62.5 µg/mL (≈ 98.3 µM)
[12]
  MIC: ≥ 62.5 µg/mL
[13]
  MIC: 62.5 µg/mL (≈ 98.3 µM)
[14]
  MIC: > 62.5 µg/mL
[15]
  MIC: 31.3 to 62.5 µg/mL (≈ 49.2 to 98.3 µM)
[16]
  MIC: 0.975 µg/mL (≈ 1.53 µM)
[17]
  MIC: 1.95 µg/mL (≈ 3.07 µM)
[18]
  MIC: 62.5 µg/mL (≈ 98.3 µM)
[19]
  MIC: 62.5 µg/mL (≈ 98.3 µM)
[20]
  MIC: 62.5 µg/mL (≈ 98.3 µM)
[21]
  MIC: 62.5 µg/mL (≈ 98.3 µM)
[22]
  MIC: 3.9 µg/mL (≈ 6.13 µM)
[23]
  MIC: 3.9 µg/mL (≈ 6.13 µM)
[24]
  MIC: > 62.5 µg/mL
[25]
  MIC: 31.3 µg/mL (≈ 49.2 µM)

## C[C@@H](c1ncncc1F)[C@](O)(Cn1cncn1)c1ccc(F)cc1F [VOR, voriconazole, reference compound]
[11]; as used in the time-kill study, strain A
  1× MIC value: 1.0 µg/mL
[26]
  effect on growth (time-kill, in words): little to no growth inhibitory effect
[27]; 1× MIC (7b 3.9 μg/mL; VOR 1.0 μg/mL), after 9 h of treatment
  reduction of CFU: ≥ 2 log10
[27]; 24-h period, TOB 15.6 μg/mL, VOR 1× MIC 1.0 μg/mL
  effect on growth (time-kill, in words): maintained a fungistatic activity up to the 24-h period
